According to patent US20250281457A1, “TREATMENT OR PREVENTION OF DENGUE VIRAL INFECTION” (Janssen Pharmaceuticals, Inc., priority 2022, published 2025):
Read-outs that look alike come from different tables or passages of the source.

Experiment: Plasma pharmacokinetics with loading dose and weekly or twice weekly maintenance dosing, fed (Example 5)
Format: in vivo, human
Conditions: human, plasma, oral; for Cmax: read-out: Mean Cmax (SD); for AUC: read-out: Mean AUCτ (SD); for AUC(0-inf): read-out: Mean AUC∞ (SD); for concentration at 72 h: read-out: Mean C72 h (SD)
Procedure: A pharmaceutical formulation comprising Compound (a) as described in Example 2 (SF2a/b) was administered as an oral dosage form, to healthy adult participants, in a fed state. Four dose regimens were applied: • Panel I (weekly dosing): 450 mg of Compound (a) twice a day (BID) for two days: on day 1 (D1) and on day 2 (D2) (loading dose); and then 900 mg once a week (Q7D), on day 3 (D3), day 10 (D10), day 17 (D17), and on day 24 (D24) (maintenance dose). • Panel II (biweekly dosing): 450 mg of Compound (a) twice a day (BID) for two days: on day 1 (D1) and on day 2 (D2); (loading dose) and then 450 mg once every 3 (Q3D) or 4 days (Q4D): on day 3 (D3), on day 6 (D6), on day 10 (D10), on day 13 (D13), on day 17 (D17), on day 20 (D20), on day 24 (D24), and on day 27 (D27), for a total of 900 mg each week administered through two doses of 450 mg each (maintenance dose). • Panel III (weekly dosing): 150 mg of Compound (a) twice a day (BID) for two days: on day 1 (D1) and on day 2 (D2) (loading dose); and then 300 mg once a week (Q7D): on day 3 (D3), day 10 (D10), day 17 (D17), and on day 24 (D24) (maintenance dose). • Panel IV (biweekly dosing): 150 mg of Compound (a) twice a day (BID) for two days: on day 1 (D1) and on day 2 (D2) (loading dose); and then 150 mg Q3D or Q4D: on day 3 (D3), on day 6 (D6), on day 10 (D10), on day 13 (D13), on day 17 (D17), on day 20 (D20), on day 24 (D24), and on day 27 (D27), for a total of 300 mg each week administered through two doses of 150 mg each (maintenance dose).
Oral dosage forms were administered together with approximately 240 mL of non-carbonated water under fed conditions, and were taken within 10 minutes after completion of normal standardized normal fat breakfast in the morning or after completion of normal standardized normal fat dinner in case of evening dosing. Intake of Compound (a) took place at around the same time each day. Intake of Compound (a) marked time 0 hours.
A standardized normal fat meal was served approximately 30 minutes before study drug intake. The standardized normal fat meal contained approximately 21 g of fat, 67 g of carbohydrates, 19 g of proteins resulting in around 533 kcal (an example meal is 4 slices of bread, 2 slices of ham or cheese, butter, jelly, and 1 or 2 cups (up to 355 mL) of decaffeinated coffee or tea with milk and/or sugar). The standardized normal fat meal was ingested entirely within 30 minutes or less. Within 10 minutes after completing the meal, but no more than 30 minutes after the start of the meal, study drug was administered. In case of Compound (a) intake in the evening, timing of standardized dinner was aligned to time of drug intake. […]
For Study Panel 1 only, additional whole blood samples were be collected on Days 1, 24, 25, 26, 38, 45, 51, and 59 using venipuncture. The whole blood samples were be used for the determination of Compound (a) whole blood concentrations and for determination of Compound (a) plasma concentrations. To determine Compound (a) venous whole blood concentrations, an aliquot of the whole blood sample was be pipetted onto the TASSO M-20 for better comparison with capillary whole blood samples collected by TASSO M-20. […]
Separation between metabolites and interfering endogenous compounds was achieved by injecting 2 μL sample extract onto an Acquity UPLC BEH C18 column (50×2.1 mm, 1.7 μm, Waters) at 50° C. and using 10 mM ammonium bicarbonate solution as mobile phase A, and methanol: acetonitrile (50:50, v/v) as mobile phase B. A gradient elution at a flow rate of 0.600 mL/min was applied using the following program: 35% B was increased to 90% B in 3 min, was further increased to 98% B at 3.01 min and held constant up to 4.00 min.
A Triple Quad 6500+ mass spectrometer (Sciex) equipped with a turbo ion spray source was used for analyte detection in positive ion mode using electrospray ionization. […]

[1] = 450 mg, Panel I (450 mg BID Days 1-2, then 900 mg Q7D; SF2a/b, fed), Day 2
[2] = 450 mg, Panel II (450 mg BID Days 1-2, then 450 mg Q3D/Q4D; SF2a/b, fed), Day 27
[3] = Panel I (450 mg BID Days 1-2, then 900 mg Q7D; SF2a/b, fed), Day 24
[4] = Panel II (450 mg BID Days 1-2, then 450 mg Q3D/Q4D; SF2a/b, fed), Day 2
[5] = Panel III (150 mg BID Days 1-2, then 300 mg Q7D; SF2a/b, fed), Day 24
[6] = Panel IV (150 mg BID Days 1-2, then 150 mg Q3D/Q4D; SF2a/b, fed), Day 2

For `COc1cc(NC(C(=O)c2c[nH]c3ccc(OC(F)(F)F)cc23)c2ccc(Cl)cc2OC)cc(S(C)(=O)=O)c1` (stereo not drawn) [Compound (a)], the Cmax (300 mg, Panel III (150 mg BID Days 1-2, then 300 mg Q7D; SF2a/b, fed), Day 3) was 3100 ng/mL, the Tmax (300 mg, Panel III (150 mg BID Days 1-2, then 300 mg Q7D; SF2a/b, fed), Day 3, read-out: Median tmax (min-max)) was 5 h and the AUC (450 mg, Panel I (450 mg BID Days 1-2, then 900 mg Q7D; SF2a/b, fed), Day 1) was 17.5 µg·h/mL. For the same compound, the Tmax (450 mg, Panel I (450 mg BID Days 1-2, then 900 mg Q7D; SF2a/b, fed), Day 1, read-out: Median tmax (min-max)) was 7.5 h, the AUC [1] was 46.5 µg·h/mL and the Cmax [1] was 5080 ng/mL. It also gave a Tmax (450 mg, Panel I (450 mg BID Days 1-2, then 900 mg Q7D; SF2a/b, fed), Day 2, read-out: Median tmax (min-max)) of 5.5 h, a Cmax (450 mg, Panel II (450 mg BID Days 1-2, then 450 mg Q3D/Q4D; SF2a/b, fed), Day 1) of 1960 ng/mL and an AUC(0-t) (450 mg, Panel II (450 mg BID Days 1-2, then 450 mg Q3D/Q4D; SF2a/b, fed), Day 3, read-out: Mean AUC24 h (SD)) of 110 µg·h/mL. The AUC(0-t) (450 mg, Panel II (450 mg BID Days 1-2, then 450 mg Q3D/Q4D; SF2a/b, fed), Day 3, read-out: Mean AUC72 h (SD)) was 263 µg·h/mL, the Cmax (450 mg, Panel II (450 mg BID Days 1-2, then 450 mg Q3D/Q4D; SF2a/b, fed), Day 3) was 5950 ng/mL and the Tmax (450 mg, Panel II (450 mg BID Days 1-2, then 450 mg Q3D/Q4D; SF2a/b, fed), Day 3, read-out: Median tmax (min-max)) was 6.5 h. It also gave a Cmax (450 mg, Panel II (450 mg BID Days 1-2, then 450 mg Q3D/Q4D; SF2a/b, fed), Day 6) of 4380 ng/mL, a Cmax (450 mg, Panel II (450 mg BID Days 1-2, then 450 mg Q3D/Q4D; SF2a/b, fed), Day 10) of 4080 ng/mL and a Cmax (450 mg, Panel II (450 mg BID Days 1-2, then 450 mg Q3D/Q4D; SF2a/b, fed), Day 13) of 4070 ng/mL. It also gave a Cmax (450 mg, Panel II (450 mg BID Days 1-2, then 450 mg Q3D/Q4D; SF2a/b, fed), Day 17) of 3940 ng/mL, a Cmax (450 mg, Panel II (450 mg BID Days 1-2, then 450 mg Q3D/Q4D; SF2a/b, fed), Day 20) of 4060 ng/mL and a Cmax (450 mg, Panel II (450 mg BID Days 1-2, then 450 mg Q3D/Q4D; SF2a/b, fed), Day 24) of 3920 ng/mL. For the same compound, the AUC(0-t) (450 mg, Panel II (450 mg BID Days 1-2, then 450 mg Q3D/Q4D; SF2a/b, fed), Day 27, read-out: Mean AUC24 h (SD)) was 74.2 µg·h/mL, the AUC(0-t) (450 mg, Panel II (450 mg BID Days 1-2, then 450 mg Q3D/Q4D; SF2a/b, fed), Day 27, read-out: Mean AUC72 h (SD)) was 197 µg·h/mL and the AUC(0-t) (450 mg, Panel II (450 mg BID Days 1-2, then 450 mg Q3D/Q4D; SF2a/b, fed), Day 27, read-out: Mean AUClast (SD)) was 771 µg·h/mL. It also gave an AUC(0-inf) [2] of 809 µg·h/mL, a Cmax [2] of 3980 ng/mL and a Tmax (450 mg, Panel II (450 mg BID Days 1-2, then 450 mg Q3D/Q4D; SF2a/b, fed), Day 27, read-out: Median tmax (min-max)) of 6 h. The AUC(0-t) (900 mg, Panel I (450 mg BID Days 1-2, then 900 mg Q7D; SF2a/b, fed), Day 3, read-out: Mean AUC24 h (SD)) was 129 µg·h/mL, the AUC(0-t) (900 mg, Panel I (450 mg BID Days 1-2, then 900 mg Q7D; SF2a/b, fed), Day 3, read-out: Mean AUC72 h (SD)) was 318 µg·h/mL and the Cmax (900 mg, Panel I (450 mg BID Days 1-2, then 900 mg Q7D; SF2a/b, fed), Day 3) was 6560 ng/mL. The Tmax (900 mg, Panel I (450 mg BID Days 1-2, then 900 mg Q7D; SF2a/b, fed), Day 3, read-out: Median tmax (min-max)) was 5 h, the Cmax (Panel I (450 mg BID Days 1-2, then 900 mg Q7D; SF2a/b, fed), Day 1) was 2020 ng/mL and the Cmax (Panel I (450 mg BID Days 1-2, then 900 mg Q7D; SF2a/b, fed), Day 10) was 4240 ng/mL. For the same compound, the Cmax (Panel I (450 mg BID Days 1-2, then 900 mg Q7D; SF2a/b, fed), Day 17) was 4280 ng/mL, the AUC(0-t) (Panel I (450 mg BID Days 1-2, then 900 mg Q7D; SF2a/b, fed), Day 24, read-out: Mean AUC24 h (SD)) was 79.7 µg·h/mL and the AUC(0-t) (Panel I (450 mg BID Days 1-2, then 900 mg Q7D; SF2a/b, fed), Day 24, read-out: Mean AUC72 h (SD)) was 195 µg·h/mL. For the same compound, the AUC(0-t) (Panel I (450 mg BID Days 1-2, then 900 mg Q7D; SF2a/b, fed), Day 24, read-out: Mean AUClast (SD)) was 657 µg·h/mL, the AUC(0-inf) [3] was 676 µg·h/mL and the Cmax [3] was 4260 ng/mL. It also gave a Tmax (Panel I (450 mg BID Days 1-2, then 900 mg Q7D; SF2a/b, fed), Day 24, read-out: Median tmax (min-max)) of 6 h, an AUC (Panel II (450 mg BID Days 1-2, then 450 mg Q3D/Q4D; SF2a/b, fed), Day 1) of 15.5 µg·h/mL and a Tmax (Panel II (450 mg BID Days 1-2, then 450 mg Q3D/Q4D; SF2a/b, fed), Day 1, read-out: Median tmax (min-max)) of 5.5 h. It also gave an AUC [4] of 44.9 µg·h/mL, a Cmax [4] of 4640 ng/mL and a Tmax (Panel II (450 mg BID Days 1-2, then 450 mg Q3D/Q4D; SF2a/b, fed), Day 2, read-out: tmax) of 5 h. The Cmax (Panel III (150 mg BID Days 1-2, then 300 mg Q7D; SF2a/b, fed), Day 1) was 741 ng/mL, the Cmax (Panel III (150 mg BID Days 1-2, then 300 mg Q7D; SF2a/b, fed), Day 10) was 2180 ng/mL and the Cmax (Panel III (150 mg BID Days 1-2, then 300 mg Q7D; SF2a/b, fed), Day 17) was 2050 ng/mL. For the same compound, the AUC(0-t) (Panel III (150 mg BID Days 1-2, then 300 mg Q7D; SF2a/b, fed), Day 24, read-out: Mean AUC24 h (SD)) was 37.2 µg·h/mL, the AUC(0-t) (Panel III (150 mg BID Days 1-2, then 300 mg Q7D; SF2a/b, fed), Day 24, read-out: Mean AUC72 h (SD)) was 92.5 µg·h/mL and the AUC(0-t) (Panel III (150 mg BID Days 1-2, then 300 mg Q7D; SF2a/b, fed), Day 24, read-out: Mean AUClast (SD)) was 299 µg·h/mL. For the same compound, the AUC(0-inf) [5] was 325 µg·h/mL, the Cmax [5] was 2130 ng/mL and the Tmax (Panel III (150 mg BID Days 1-2, then 300 mg Q7D; SF2a/b, fed), Day 24, read-out: Median tmax (min-max)) was 7 h. It also gave an AUC (Panel IV (150 mg BID Days 1-2, then 150 mg Q3D/Q4D; SF2a/b, fed), Day 1) of 5.98 µg·h/mL, a Tmax (Panel IV (150 mg BID Days 1-2, then 150 mg Q3D/Q4D; SF2a/b, fed), Day 1, read-out: Median tmax (min-max)) of 5 h and an AUC [6] of 15.8 µg·h/mL. It also gave a Cmax [6] of 1600 ng/mL, a Tmax (Panel IV (150 mg BID Days 1-2, then 150 mg Q3D/Q4D; SF2a/b, fed), Day 2, read-out: tmax) of 5 h and a concentration at 72 h (Panel I (450 mg BID Days 1-2, then 900 mg Q7D; SF2a/b, fed), Day 3) of 3440 ng/mL. For the same compound, the concentration at 72 h (Panel II (450 mg BID Days 1-2, then 450 mg Q3D/Q4D; SF2a/b, fed), Day 3) was 2710 ng/mL, the concentration at 72 h (Panel III (150 mg BID Days 1-2, then 300 mg Q7D; SF2a/b, fed), Day 3) was 1210 ng/mL and the concentration at 72 h (Panel IV (150 mg BID Days 1-2, then 150 mg Q3D/Q4D; SF2a/b, fed), Day 3) was 865 ng/mL.
